From patent US8481678B2, “Peptide-based tooth whitening reagents” (E I du Pont de Nemours and Company, priority 2009, dated 2013)

B1: Engineered Peptide: recombinant triblock reagent: two tooth-binding peptides (SEQ 108), spacers, two cellulose acetate-binding peptides (SEQ 118), His-tag; applied with cellulose acetate-coated TiO2 (protein)
chain: PHMASMTGGQQMGSYSETPNDQKPNPHYKVSGTKGPEEAAKKEEAAKKPAYSETPNDQKPNPHYKVSGTKGSGGGGSGSGGGGSVRPNLHRKAKAKPDHKQSENRKVPFYSHGSSGGGGVRPNLHRKAKAKPDHKQSENRKVPFYSHGSSGGGHHHHHH
modifications: applied with cellulose acetate-coated TiO2; Synthetic peptide-based tooth whitening reagent

Tested on: pellicle coated bovine enamel
Assay: Phage ELISA on pellicle-coated bovine enamel (30 min in vivo pellicle), Example 13
Assay type: binding, human
Details: 10^11 pfu, 30 min at 37° C., normalized to an internal control
Procedure: A total of 29 selected phage candidates from Table 14 were used in phage ELISA Experiment to determine binding affinity and coverage of each phage on pellicle substrates. Purified phage lysates were used for binding to pellicle coated bovine enamel using an anti-M13 phage antibody conjugated to horseradish-peroxidase, followed by the addition of chromogenic agent TMB, obtained from Pierce Biotechnology (Rockford, Ill.). The plates were read at A450nm.
The wells were filled with 1 mL of 10^11 pfu purified phage stock which was prepared by diluting in blocking buffer. […] The non-binding phage was removed by washing 5 times with PBST. […] The conjugate solution was removed and was washed 3 times with PBST.

| Molecule | O.D. at 450 nm (normalized) |
| --- | --- |
| TTYHYKNIYQESYQQRNPAV (Synthetic oral-surface binding peptide) [DenP 03] | 2.495 |

Tested on: not listed separately
Assay: Whitening of tea-stained bovine enamel with peptide reagent and cellulose acetate-coated TiO2 (CIELAB colour)
Set-up: key to L* / a* / b*: CIELAB coordinates: L* lightness, a*/b* chromaticity (D65 illuminant); key to ΔE: ΔE = ((ΔL*)²+(Δa*)²+(Δb*)²)^½ vs tea-stained baseline
Details: 5 μM peptide 30 min + 0.25% CA-TiO2 30 min, versus tea-stained baseline; buffer control 3.25
Procedure: The peptide-based reagent comprising multiple tooth-binding peptides, spacers, and cellulose acetate-binding peptide sequences was prepared as described in Example 8.
The cellulose acetate-coated titanium dioxide was prepared as described in Example 10. The peptide-based reagent described in Example 8 (SEQ ID NO:116) was used. The peptide-based reagent was diluted with 25 mM Tris-HCl buffer including 150 mM NaCl at pH 7.5 to give a final concentration of 5 μM. The cellulose acetate-coated titanium dioxide dispersion described in Example 10 was further diluted from 20% solids to 0.25% solids in 25 mM Tris-HCl buffer at pH 7.5.
Bovine Teeth (SE Dental, Baton Rouge, La.) were used as model substrate to test with the engineered peptide-based reagent designed to bind to tooth enamel (SEQ ID NO:116). The teeth were prepared by cleaning in detergent and then disinfecting in 70% Ethanol prior to use. Each clean tooth was measured for color using an X-RITE® SP64 Spectrometer to collect a reflectance spectrum and CIELAB color coordinates, L*, a* and b*. A staining solution was made with 100 mL of boiling water exposed to 1 Lipton tea bag for 5 minutes. After the solution cooled to room temperature, each tooth was allowed to incubate in the staining solution for approximately 3 days. The teeth were removed and rinsed with water and dried. Color measurement was obtained for each tooth.
The stained bovine enamel substrates were exposed to either the 5 μM solution of peptide or as a control, the buffer used to make the peptide solution. This exposure was for 30 minutes with gentle agitation in a vortex mixer. Following peptide binding, the teeth were removed and rinsed in buffer and placed in a 0.25% solution of cellulose acetate coated titanium dioxide for 30 minutes. The teeth were removed, rinsed in buffer, blotted dry and measured for color using the X-RITE® spectrometer. The teeth were placed back in the same pigment solutions for an additional 2.5 hr and removed, rinsed and measured again.
The color intensity at each step mentioned above (e.g., to determine the change in tooth whitening) was measured using a X-RITE® SP64™ Sphere Spectrophotometer (X-Rite, Inc., Grandville, Mich.), by placing the front of the bovine tooth (treated or control) sample into a sample holder and calculating L*, a* and b* parameters representing the photometer response using a standard D65 illuminant. An initial baseline values of L*, a* and b* were measured prior to peptide treatment for the tea-stained bovine samples. All measurements are the average of three individual determinations. Delta E values are calculated using equation 1 below: Delta E=((L*1−L*2)^2+(a1−a2)^2+(b1−b2)^2)^1/2 (1) where L*=the lightness variable and a* and b* are the chromaticity coordinates of CIELAB colorspace as defined by the International Commission of Illumination (CIE) (Minolta, Precise Color Communication—Color Control From Feeling to Instrumentation, Minolta Camera Co., 1996). Larger Delta E value is indicative of an increase in whiteness. In one embodiment, a larger Delta E for the treatment group (peptide-based reagent+polymer coated white colorant) versus the Delta E of the peptide-free control is used to determine the relative increase in whiteness.

| Molecule | ΔE |
| --- | --- |
| B1 | 6.68 |

Same assay, conditions: 5 μM peptide 30 min + 0.25% CA-TiO2 30 min; tea-stained baseline 3.96396

| Molecule | a* |
| --- | --- |
| B1 | 1.635 |

Same assay, conditions: 5 μM peptide 30 min + 0.25% CA-TiO2 30 min; tea-stained baseline 22.7952

| Molecule | b* |
| --- | --- |
| B1 | 18.0418 |

Same assay, conditions: 5 μM peptide 30 min + 0.25% CA-TiO2 30 min; tea-stained baseline 67.0271

| Molecule | L* |
| --- | --- |
| B1 | 71.1068 |

Same assay, conditions: after additional 2.5 hr in CA-TiO2

| Molecule | L* | a* | b* |
| --- | --- | --- | --- |
| B1 | 73.9558 | 1.496 | 18.0851 |

Same assay, conditions: after additional 2.5 hr in CA-TiO2, versus tea-stained baseline; buffer control 3.80

| Molecule | ΔE |
| --- | --- |
| B1 | 8.73 |

Tested on: pellicle-coated bovine enamel
Assay: Phage ELISA on pellicle-coated bovine enamel, candidates from brushed 8 hr pellicle, Example 17
Assay type: binding, human
Details: phage ELISA screened with 30 min in vivo pellicle; normalized to DenP3; no-phage control 0.094
Procedure: A total of 18 selected phage candidates were used in a phage ELISA Experiment. Purified phage lysates were used for binding to pellicle-coated bovine enamel using an anti-M13 phage antibody conjugated to horseradish-peroxidase, followed by the addition of chromogenic agent TMB, obtained from Pierce Biotechnology (Rockford, Ill.). The plates were read at A450nm.
The wells were rinsed 2 times with wash buffer consisting of PBST. The wells were filled with 1 mL of […] purified phage stock which was prepared by diluting in blocking buffer. […] The non-binding phage was removed by washing 5 times with PBST. Then, 500 μL of horseradish peroxidase/anti-M13 antibody conjugate (Amersham USA, Piscataway, N.J.), diluted 1:500 in the blocking buffer, was added and incubated for 45 min at room temperature. The conjugate solution was removed and was washed 5 times with PBST.

| Molecule | O.D. at 450 nm (normalized) |
| --- | --- |
| DGYKLQTSLDWQMWNP [DenP111] | 1.051 |
| SFSWHRGDWELGHQSKTMGM [DenP106] | 1.524 |
| AIEYQHSATTPWTMRTRLPP [DenP101] | 0.467 |
| NQQMKLVPQHWHRAQP [DenP119] | 1.051 |
| GINKGQRPPWESWHEN [DenP114] | 0.703 |
| HDHLSWWGQFDRQNLL [DenP116] | 1.055 |
| QFNQTSHSFMHGTSGYVPGK [DenP105] | 0.470 |
| NLHSPWPSHAAHHWST [DenP118] | 0.641 |
| THGNKHQSWTYPSEINHKNY [DenP108] | 1.149 |
| GYQPHYVDHTIGWQPMIRPN [DenP104] | 0.790 |
| GYGQYVSQQTWAHSNK [DenP115] | 0.501 |
| MPGHQESIKVQNWNRV [DenP117] | 0.433 |
| TTYHYKNIYQESYQQRNPAV (Synthetic oral-surface binding peptide) [DenP 03] | 1.000 |
| GGMGALESYRQWNHLA [DenP113] | 1.348 |
| FPSKWYNHHRHITGHV [DenP112] | 0.413 |
| EFYPFAEVPPEKSGIGRQVF [DenP102] | 0.520 |
| GVHQYSRPTVPSYLWTSGQH [DenP103] | 0.879 |
| SMWHDITKRYRNPSEMVSAY [DenP107] | 0.726 |
